{"source": "patent US20090209598A1", "about": "“Resorcine Derivatives and Their Use as Pesticides” (priority 2005, published 2009)", "assay_in_all_cases": "whole plant or invertebrate", "type_in_all_cases": "in vivo", "key": {"[1]": {"tested_on": "diamond back moth (plutella xylostella)", "conditions": "foliar, cabbage leaf disk dip, third instar larvae, after 72 h, read-out: mortality in comparison with untreated controls", "experimental": "6. Activity against diamond back moth (plutella xylostella)\nThe active compounds were formulated in 50:50 acetone:water and 0.1% (vol/vol) Alkamuls EL 620 surfactant. A 6 cm leaf disk of cabbage leaves was dipped in the test solution for 3 seconds and allowed to air dry in a Petri plate lined with moist filter paper. The leaf disk was inoculated with 10 third instar larvae and kept at […] and 50-60% humidity for 3 days. Mortality was assessed after 72 h of treatment."}, "[2]": {"tested_on": "Tobacco Budworm (Heliothis virescens)", "conditions": "144 h, eggs sprayed with 10 μl test solution, 6 days", "experimental": "2. Activity Against Tobacco Budworm (Heliothis virescens)\nThe active compounds were formulated in 1:3 DMSO:water. 15 to 25 eggs were placed into microtiterplates filled with diet. The eggs were sprayed with 10 μl of the test solution, the plates were sealed with pierced foils and kept at 27-29° C. and 75-85% humidity under fluorescent light for 6 days. Mortality was assessed on the basis of the agility and of comparative feeding of the hatched larvae. Tests were replicated 2 times."}, "[3]": {"tested_on": "Boll Weevil (Anthonomus grandis)", "conditions": "eggs sprayed with 20 μl test solution, 3 to 5 days", "experimental": "1. Activity Against Boll Weevil (Anthonomus grandis)\nThe active compounds were formulated in 1:3 DMSO:water. 10 to 15 eggs were placed into microtiterplates filled with 2% agar-agar in water and 300 ppm formaline. The eggs were sprayed with 20 μl of the test solution, the plates were sealed with pierced foils and kept at 24-26° C. and 75-85% humidity with a day/night cycle for 3 to 5 days. Mortality was assessed on the basis of the remaining unhatched eggs or larvae on the agar surface and/or quantity and depth of the digging channels caused by the hatched larvae. Tests were replicated 2 times."}, "[4]": {"tested_on": "Southern Armyworm (Spodoptera Eridania), 2Nd Instar Larvae", "conditions": "in Phaseolus lunatus, foliar, 96 h, leaf dip, at 4 days, read-out: mortality in comparison with untreated controls", "experimental": "3. Activity Against Southern Armyworm (Spodoptera Eridania), 2Nd Instar Larvae\nThe active compounds were formulated for testing the activity against insects and arachnids as a 10.000 ppm solution in a mixture of 35% acetone and water, which was diluted with water, if needed.\nA Sieva lima bean leaf was dipped in the test solution and allowed to dry. The leaf was then placed in a plastic perforated zip enclosure bag and ten 2nd instar larvae were added. At 4 days, observations are made of mortality and reduced feeding."}}, "data": [{"smiles": "FC(F)(F)c1ccc(OCCCCCCOc2cc(Cl)cc(OCC=C(Cl)Cl)c2)nc1", "note": "[I.2, 2-{6-[3-chloro-5-(3,3-dichloro-allyloxy)-phenoxy]-hexyloxy}-5-trifluoromethylpyridine]", "values": [{"measurement": "mortality at 300 ppm", "setting": "[1]", "result": "≥ 75", "unit": "%"}, {"measurement": "mortality at 2500 ppm", "setting": "[2]", "result": "> 75", "unit": "%"}, {"measurement": "mortality at 2500 ppm", "setting": "[3]", "result": "> 75", "unit": "%"}, {"measurement": "mortality at 300 ppm", "setting": "[4]", "result": "≥ 80", "unit": "%"}]}]}
